These results are taken from patent US7485641B2, “Substituted 3-amino-pyrrolidino-4-lactams” (Pfizer, Inc., priority 2006, dated 2009).

This assay addresses T1, DPP-IV (Homo sapiens, UniProt P27487).
T1 construct: purchased Enzyme Systems Products SPE-01
The experiment in a line: In vitro assay for dipeptidyl peptidase inhibition. Type of assay: biochemical.

[1] abbreviates: n-value given in brackets, read-out: DPP-IV IC50.
[2] abbreviates: Examples 156-162, n-value in brackets, IC50's or percent inhibition at 300 nM, read-out: DPP-IV inhibition.

Counter-ions that a name gives are not always drawn. Like-named read-outs stand apart in the source and are kept apart here.

T1 sequence (P27487 whole entry, species assumed): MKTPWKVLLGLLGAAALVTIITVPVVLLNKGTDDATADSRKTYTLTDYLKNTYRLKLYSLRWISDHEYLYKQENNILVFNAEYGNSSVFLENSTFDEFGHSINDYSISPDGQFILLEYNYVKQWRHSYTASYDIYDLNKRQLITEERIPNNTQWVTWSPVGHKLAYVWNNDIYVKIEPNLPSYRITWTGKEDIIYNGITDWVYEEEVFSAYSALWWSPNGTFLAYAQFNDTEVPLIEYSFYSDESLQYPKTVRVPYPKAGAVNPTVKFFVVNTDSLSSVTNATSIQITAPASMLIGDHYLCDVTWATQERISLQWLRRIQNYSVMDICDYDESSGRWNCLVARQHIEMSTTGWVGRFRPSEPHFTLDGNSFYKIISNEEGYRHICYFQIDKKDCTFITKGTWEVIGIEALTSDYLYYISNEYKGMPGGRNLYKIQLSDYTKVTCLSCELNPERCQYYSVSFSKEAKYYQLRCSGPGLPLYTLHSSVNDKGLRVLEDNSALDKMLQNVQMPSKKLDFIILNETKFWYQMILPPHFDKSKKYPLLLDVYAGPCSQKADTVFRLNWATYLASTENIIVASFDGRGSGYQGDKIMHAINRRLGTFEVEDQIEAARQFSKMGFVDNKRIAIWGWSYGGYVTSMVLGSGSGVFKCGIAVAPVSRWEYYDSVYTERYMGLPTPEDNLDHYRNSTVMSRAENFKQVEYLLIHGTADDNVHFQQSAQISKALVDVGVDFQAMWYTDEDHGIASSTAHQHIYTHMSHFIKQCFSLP

For the compound `CO[C@H]1CCN(c2ncnc(N3C[C@H](N)[C@@H](N4CCCCC4=O)C3)n2)C1` [Example 40, 1-((3S,4S)-4-Amino-1-(4-((S)-3-methoxypyrrolidin-1-yl)-1,3,5-triazin-2-yl)pyrrolidin-3-yl)piperidin-2-onetrifluoroacetate], under setting [1], the IC50 amounted to 566 nM.

Turning to `CS(=O)(=O)c1ccc(S(=O)(=O)Oc2ccc3c(N4C[C@H](N)[C@@H](N5CCCCC5=O)C4)ncnc3c2)cc1` [Example 141, 4-((3S,4S)-3-amino-4-(2-oxopiperidin-1-yl)pyrrolidin-1-yl)quinazolin-7-yl 4-(methylsulfonyl)benzenesulfonate], the IC50 under setting [1] was 278 nM. Same read-out and setting: the figure for `N[C@H]1CN(c2ncnc3ccc(Cl)cc23)C[C@@H]1N1CCCCC1=O` [Example 104, 1-[(3S,4S)-4-Amino-1-(6-chloro-quinazolin-4-yl)-pyrrolidin-3-yl]-piperidin-2-one hydrochloride] is 132 nM. On to `CNS(=O)(=O)c1cccc2c1CCN(c1ncnc(N3C[C@H](N)[C@@H](N4CCCCC4=O)C3)n1)C2` [Example 58, 2-(4-((3S,4S)-3-Amino-4-(2-oxopiperidin-1-yl)pyrrolidin-1-yl)-1,3,5-triazin-2-yl)-N-methyl-1,2,3,4-tetrahydroisoquinoline-5-sulfonamidetrifluoroacetate], for which, under setting [1], the IC50 was 11.6 nM. On to `COc1ccc(-c2cc(N3C[C@H](N)[C@@H](N4CCCCC4=O)C3)ncn2)cn1` [Example 87, 1-{(3S,4S)-4-Amino-1-[6-(6-methoxy-pyridin-3-yl)-pyrimidin-4-yl]pyrrolidin-3-yl}-piperidin-2-one dihydrochloride], for which the IC50 under setting [1] came out at 38.6 nM. As for `N[C@H]1CN(c2ncnc3c2ncn3CC(F)(F)F)C[C@@H]1N1CCCCC1=O` [Example 149, 1-{(2S,4S)-4-Amino-1-[9-(2,2,2-trifluoro-ethyl)-9H-purin-6-yl]-pyrrolidin-3-yl}-piperidin-2-onehydrochloride], under setting [1], the IC50 came out at 497 nM. Regarding `CCC[C@H](C)Oc1cc(N2C[C@H](N)[C@@H](N3CCCCC3=O)C2)ncn1` [Example 90, 1-((3S,4S)-4-Amino-1-(6-((S)-pentan-2-yloxy)pyrimidin-4-yl)pyrrolidin-3-yl)piperidin-2-onetrifluoroacetate], under setting [1], the IC50 amounted to 1030 nM. On the same count and under the same terms, the same measure for `N[C@H]1CN(c2ncnc3cc(OC4CCC4)ccc23)C[C@@H]1N1CCCCC1=O` [Example 125, 1-((3S,4S)-4-amino-1-(7-cyclobutoxyquinazolin-4-yl)pyrrolidin-3-yl)piperidin-2-one]: 101 nM; for `CCCOc1cc(N2C[C@H](N)[C@@H](N3CCCCC3=O)C2)ncn1` [Example 89, 1-((3S,4S)-4-Amino-1-(6-propoxypyrimidin-4-yl)pyrrolidin-3-yl)piperidin-2-one trifluoroacetate]: 318 nM. Turning to `N[C@H]1CN(c2cc(N3CCc4sccc4C3)ncn2)C[C@@H]1N1CCCC1=O` [Example 65, 1-((3S,4S)-4-Amino-1-(6-(6,7-dihydrothieno[3,2-c]pyridin-5(4H)-yl)pyrimidin-4-yl)pyrrolidin-3-yl)pyrrolidin-2-onehydrochloride], under setting [1], the IC50 worked out at 547 nM. As to `N[C@H]1CN(c2ncnc(N3CCc4nocc4C3)n2)C[C@@H]1N1CCCCC1=O` [Example 76, 1-{(3S,4S)-4-Amino-1-[4-(6,7-dihydro-4H-isoxazolo[4,3-c]pyridine-5-yl)-[1,3,5]triazin-2-yl]-pyrrolidin-3-yl}-piperidin-2-one trifluoroacetate], the IC50 under setting [1] was 23.7 nM.

`N[C@H]1CN(C(=O)c2cc3cc(Cl)ccc3o2)C[C@@H]1N1CCCCC1=O` [Example 154, 1-[(3S,4S)-4-Amino-1-[(5-chloro-1-benzofuran-2-yl)carbonyl]-pyrrolidin-3-yl]-piperidin-2-one hydrochloride]: under setting [1], the IC50 amounted to 92.3 nM. Regarding `N[C@H]1CN(c2ncnc(-c3ccccc3)n2)C[C@@H]1N1CCCCC1=O` [Example 85, 1-[(3S,4S)-4-Amino-1-(4-phenyl-[1,3,5]triazin-2-yl)-pyrrolidin-3-yl]-piperidin-2-one hydrochloride], under setting [1], the IC50 turned out to be 59.1 nM. Turning to `N[C@H]1CN(c2ncnc3cc(OS(=O)(=O)c4ccc(F)cc4F)ccc23)C[C@@H]1N1CCCCC1=O` [Example 143, 4-((3S,4S)-3-amino-4-(2-oxopiperidin-1-yl)pyrrolidin-1-yl)quinazolin-7-yl 2,4-difluorobenzenesulfonate], the IC50 under setting [1] was 280 nM.

Consider `N[C@H]1CN(c2cc(N3CCc4nocc4C3)ncn2)C[C@@H]1N1CCCCC1=O` [Example 5, 1-((3S,4S)-4-Amino-1-(6-(6,7-dihydroisoxazolo[4,3-c]pyridin-5(4H)-yl)pyrimidin-4-yl)pyrrolidin-3-yl)piperidin-2-one dihydrochloride], for which the IC50 under setting [1] worked out at 11.8 nM. Consider `N[C@H]1CN(c2ncnc(N3CC(Oc4ccc(F)c(F)c4)C3)n2)C[C@@H]1N1CCCCC1=O.O=C(O)C(F)(F)F` [Example 49, 1-((3S,4S)-4-Amino-1-(4-(3-(3,4-difluorophenoxy)azetidin-1-yl)-1,3,5-triazin-2-yl)pyrrolidin-3-yl)piperidin-2-onetrifluoroacetate], for which the “DPP-IV Percent Inhibition at 300 nM” value (at 300 nM, n-value given in brackets) is 19.6%(4). As to `N[C@H]1CN(c2cc(N3CCc4nc[nH]c4C3)ncn2)C[C@@H]1N1CCCC1=O` [Example 64, 1-((3S,4S)-4-Amino-1-(6-(6,7-dihydro-3H-imidazo[4,5-c]pyridin-5(4H)-yl)pyrimidin-4-yl)pyrrolidin-3-yl)pyrrolidin-2-onedihydrochloride], under setting [1], the IC50 worked out at 2480 nM. As for `N[C@H]1CN(C(=O)c2cc3ccccc3o2)C[C@@H]1N1CCCCC1=O` [Example 156, 1-[(3S,4S)-4-Amino-1-(benzofuran-2-carbonyl)-pyrrolidin-3-yl]-piperidin-2-one hydrochloride], the IC50 under setting [2] amounted to 187 nM. As to `COc1ccc2oc(C(=O)N3C[C@H](N)[C@@H](N4CCCCC4=O)C3)cc2c1` [Example 159, 1-[(3S,4S)-4-Amino-1-(5-methoxy-benzofuran-2-carbonyl)-pyrrolidin-3-yl]-piperidin-2-onehydrochloride], the IC50 under setting [2] came out at 79.3 nM. For the compound “1-((3S,4S)-4-Amino-1-(6-(pyrrolidin-1-yl)pyrimidin-4-yl)pyrrolidin-3-yl)pyrrolidin-2-one(dihydrochloride) [Example 31]”, the IC50 under setting [1] worked out at 483 nM. In the case of `N[C@H]1CN(c2ncnc(N3CC[C@H](F)C3)n2)C[C@@H]1N1CC(F)(F)CCC1=O` [Example 24, 1-((3S,4S)-4-amino-1-(4-((S)-3-fluoropyrrolidin-1-yl)-1,3,5-triazin-2-yl)pyrrolidin-3-yl)-5,5-difluoropiperidin-2-one], under setting [1], the IC50 is 47.8 nM. `N[C@H]1CN(c2cc(N3CCc4ncsc4C3)ncn2)C[C@@H]1N1CCCC1=O` [Example 62, 1-((3S,4S)-4-Amino-1-(6-(6,7-dihydrothiazolo[5,4-c]pyridin-5(4H)-yl)pyrimidin-4-yl)pyrrolidin-3-yl)pyrrolidin-2-onedihydrochloride]: under setting [1], the IC50 came out at 640 nM. The same measure, in the same setting: the same measure for `N[C@H]1CN(c2ncnc(N3C[C@H](F)[C@@H](F)C3)n2)C[C@@H]1N1CCCCC1=O` [Example 30, 1-((3S,4S)-4-Amino-1-(4-((3S,4S)-3,4-difluoropyrrolidin-1-yl)-1,3,5-triazin-2-yl)pyrrolidin-3-yl)piperidin-2-onetrifluoroacetate]: 104 nM.
